Results reported in patent publication US20250387403A1, “SELECTIVE SIGMA-2 RECEPTOR LIGANDS AS MODULATORS OF TMEM97” (BOARD OF REGENTS, THE UNIVERSITY OF TEXAS SYSTEM, priority 2022, published 2025).
pKi: −log10 of the molar value.

Legend:
σ2R/TMEM97 [1] = target: T1, σ2R/TMEM97 (Homo sapiens, UniProt Q5BJF2)
Protocol: (§1) Ki values are calculated from best-fit IC50 determinations performed in triplicate.
(§2) The binding affinities (Ki) of all synthetic compounds for σ2R/TMEM97 and σ1R were determined at the Psychoactive Drug Screening Program. Prior to the identification of σ2R as TMEM97, Ki values were measured using σ2R sourced from rat PC12 cells and σ1R sourced from guinea pig brain, but subsequently σ2R/TMEM97 and σ1R binding isotherms were determined using human protein obtained by transfection in HEK293T cells.

σ2R/TMEM97 [2] = target: T1, σ2R/TMEM97; assay: Receptor binding assay (PDSP), human σ2R/TMEM97, [3H]-ditolylguanidine competition; settings: for affinity (Ki) for σ2R/TMEM97, in words: human σ2R/TMEM97; for selectivity for σ2R/TMEM97 vs σ1R, in words: human σ2R/TMEM97 vs human σ1R
Protocol: as §1, §2

[3] = test system: primary cortical neurons transfected with plasmids expressing mHTT (Htt-N586-82Q); assay: mHTT-induced toxicity in transfected primary cortical neurons (HD cell model); format: cell-based; settings: for neuroprotection against mHTT-induced neuronal toxicity: concentrations 0.01-10 μM; for intrinsic toxicity: primary cortical neurons
Protocol: Toward testing the hypothesis that selective modulators of σ2R/TMEM97 have neuroprotective attributes in Huntington's disease, a small panel of compounds were evaluated with differing affinities and selectivities for σ2R/TMEM97 in a primary neuron model of HD. […] In the present disclosure, these compounds are tested in an HD cell model to assess the effects of these compounds upon mHTT-induced neuronal toxicity. Briefly, primary neurons were co-transfected with plasmid expression of a 586 N-terminal Htt polypeptide with either normal Q (Htt-N586-22Q) or expanded Q (Htt-N586-82Q) repeats and green fluorescent protein (GFP).
Stock solutions of σ2R/TMEM97 modulators were prepared by dissolving the compound in DMSO to a concentration of 10 mM. For the in vitro assays, the stock solution was diluted with culture medium (1:1000) to a working concentration of 10 μM of σ2R/TMEM97 modulator. Serial dilutions were then performed using culture medium to prepare other concentrations of the modulator. The final DMSO concentration is less than 0.1%. The vehicle group was performed using 0.1% DMSO in culture medium.
To assess the possible neuroprotective effects of selective σ2R/TMEM97 modulators in neurodegenerative processes associated with HD, a cell model was used that has been previously described (Arbez et al, 2017).

σ2R/TMEM97 [4] = target: σ2R/TMEM97 (Rattus norvegicus (Rat), UniProt Q5U3Y7); assay: Receptor binding assay (PDSP), rat σ2R/TMEM97 (PC12 cells), [3H]-ditolylguanidine competition
Protocol: as §1, §2

[5] = test system: spared nerve injury (SNI) model; settings: earlier studies (Sahn et al, 2017); cited from earlier work

T1 sequence (Q5BJF2 whole entry, looked up): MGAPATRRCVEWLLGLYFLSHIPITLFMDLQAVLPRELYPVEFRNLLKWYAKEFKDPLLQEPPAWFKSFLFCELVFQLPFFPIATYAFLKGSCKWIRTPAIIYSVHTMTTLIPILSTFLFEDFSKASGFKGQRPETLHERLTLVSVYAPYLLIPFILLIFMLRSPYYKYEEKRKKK
Sequence of σ2R/TMEM97 (Rattus norvegicus (Rat), UniProt Q5U3Y7) (Q5U3Y7 whole entry): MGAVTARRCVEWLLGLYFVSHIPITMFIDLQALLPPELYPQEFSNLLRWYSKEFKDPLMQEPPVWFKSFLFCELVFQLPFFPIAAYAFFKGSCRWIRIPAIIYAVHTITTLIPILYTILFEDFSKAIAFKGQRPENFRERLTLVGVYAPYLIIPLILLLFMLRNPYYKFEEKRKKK

Row | SMILES | pKi (σ2R/TMEM97 [1]) | other results
1 | O=C(N1CCN(CCO)CC1)N1CCC2C[C@H]1c1cc(-c3ccc(C(F)(F)F)cc3)ccc12 | 6.02 | 
2 | OCCCN1CC[C@@H]2CC1c1cc(-c3cccc(OC(F)(F)F)c3)ccc12 | 7.32 | 
3 | O=C(C1CCNCC1)N1CCC2CC1c1cc(-c3ccc(C(F)(F)F)cc3)ccc12 (stereo not shown) | 8.17 | 
4 | COc1ccc(-c2ccc3c(c2)C2CC3CCCN2C2CCCC2)cc1 (stereo not shown) | 6.71 | 
5 | O=C(N1CC2CC(C1)N2CCO)N1CCC2C[C@H]1c1cc(-c3ccc(C(F)(F)F)cc3)ccc12 | 7.20 | 
6 | FC(F)(F)c1ccc(-c2ccc3c(c2)C2CC3CCCN2)cc1 (stereo not shown) | 7.68 | 
7 | OCCN1CCC2CC1c1cc(-c3ccc(C(F)(F)F)cc3)ccc12 (stereo not shown) | 7.49 | 
8 | O=C(C1CCNCC1)N1CC[C@@H]2CC1c1cc(-c3cccc(OC(F)(F)F)c3)ccc12 | 7.45 | 
9 | CC(C)N1CCCC2CC1c1cc(-c3ccc(C(F)(F)F)cc3)ccc12 (stereo not shown) | 7.06 | 
10 | FC(F)(F)c1cccc(-c2ccc3c(c2)C2CC3CCCN2C2CCCC2)c1 (stereo not shown) | 7.21 | 
11 | CS(=O)(=O)c1cccc(-c2ccc3c(c2)C2C[C@H]3CCN2CCCO)c1 | 5.73 | 
12 | CS(=O)(=O)c1ccc(-c2ccc3c(c2)C2C[C@H]3CCN2CCCO)cc1 | 5.93 | 
13 | CN(CCO)CCC(=O)N1CCC2CC1c1cc(-c3cccc(C(F)(F)F)c3)ccc12 (stereo not shown) | 8.37 | 
14 | FC(F)(F)c1ccc(-c2ccc3c(c2)C2CC3CCN2C2CCC2)cc1 (stereo not shown) | 6.67 | 
15 | FC(F)(F)c1ccccc1-c1ccc2c(c1)C1CC2CCCN1C1CCCC1 (stereo not shown) | 6.26 | 
16 | CCCN1CCC(C(=O)N2CCC3CC2c2cc(-c4ccc(C(F)(F)F)cc4)ccc23)CC1 (racemic) [JJS-1678, (±)-(1-Propylpiperidin-4-yl)(8-(4-(trifluoromethyl)phenyl)-1,3,4,5-tetrahydro-2H-1,5-methanobenzo[c]azepin-2-yl)methanone] |  | affinity (Ki) for σ2R/TMEM97, in words (σ2R/TMEM97 [2]): high affinity; selectivity for σ2R/TMEM97 vs σ1R, in words (σ2R/TMEM97 [2]): good
17 | N[C@H]1CC[C@@H](N2CCC3C[C@H]2c2cc(-c4cccc(C(F)(F)F)c4)ccc23)CC1 | 7.51 | 
18 | CN1CCC(C(=O)N2CCC3C[C@@H]2c2cc(-c4ccc(C(F)(F)F)cc4)ccc23)CC1 | 7.45 | 
19 | FC(F)(F)c1ccc(-c2ccc3c(c2)C2CC3CCCN2CC2CCCC2)cc1 (stereo not shown) | 7.00 | 
20 | CN1CCC(C(=O)N2CCC3CC2c2cc(-c4cccc(OC(F)(F)F)c4)ccc23)CC1 (stereo not shown) | 7.52 | 

Row | SMILES | pKi (σ2R/TMEM97 [1]) | other results
21 | N#Cc1ccc(-c2ccc3c(c2)C2CC3CCCN2C2CCCC2)cc1 (stereo not shown) | 6.92 | 
22 | O=C(C1CCN(CCO)CC1)N1CCC2CC1c1cc(-c3ccc(C(F)(F)F)cc3)ccc12 (racemic) [EES-1686, (±)-(1-(2-Hydroxyethyl)piperidin-4-yl)(8-(4-(trifluoromethyl)phenyl)-1,3,4,5-tetrahydro-2H-1,5-methanobenzo[c]azepin-2-yl)methanone] |  | neuroprotection against mHTT-induced neuronal toxicity [3]: significant neuroprotection in a dose dependent fashion; concentration providing significant neuroprotection ([3]; lowest of the series): 10 nM; intrinsic toxicity [3]: None of these compounds appear to exhibit any intrinsic toxicity; affinity (Ki) for σ2R/TMEM97, in words (σ2R/TMEM97 [2]): high affinity; selectivity for σ2R/TMEM97 vs σ1R, in words (σ2R/TMEM97 [2]): good
23 | FC(F)(F)c1ccc(-c2ccc3c(c2)C2CC3CCCN2C2CCCCC2)cc1 (racemic) [BEA-1687, (±)-2-Cyclohexyl-9-(4-(trifluoromethyl)phenyl)-1,2,3,4,5,6-hexahydro-1,6-methanobenzo[c]azocine] |  | neuroprotection against mHTT-induced neuronal toxicity [3]: significant neuroprotection in a dose dependent fashion; intrinsic toxicity [3]: None of these compounds appear to exhibit any intrinsic toxicity; affinity (Ki) for σ2R/TMEM97, in words (σ2R/TMEM97 [2]): high affinity; selectivity for σ2R/TMEM97 vs σ1R, in words (σ2R/TMEM97 [2]): good
24 | O=C(C1CCN(CCCO)CC1)N1CC[C@@H]2CC1c1cc(-c3cccc(OC(F)(F)F)c3)ccc12 | 6.58 | 
25 | CNCCC(=O)N1CCC2CC1c1cc(-c3cccc(C(F)(F)F)c3)ccc12 (stereo not shown) | 8.31 | 
26 | FC(F)(F)c1ccc(-c2ccc3c(c2)C2CC3CCCN2C2CCCC2)cn1 (stereo not shown) | 6.47 | 
27 | O=C(N1CC2(CN(CCO)C2)C1)N1CCC2C[C@H]1c1cc(-c3ccc(C(F)(F)F)cc3)ccc12 | 6.36 | 
28 | O=C(C1CCNCC1)N1CCC2CC1c1cc(-c3cccc(C(F)(F)F)c3)ccc12 (stereo not shown) | 8.26 | 
29 | O=C(C1CCN(CCCO)CC1)N1CCC2C[C@H]1c1cc(-c3ccc(C(F)(F)F)cc3)ccc12 | 8.11 | 
30 | CN1CCN(c2ccc3c(c2)C2CC3CCN2C(=O)OCc2ccc(F)cc2)CC1 (racemic) [AMA-1127, (±)-4-Fluorobenzyl-8-(4-methylpiperazin-1-yl)-1,3,4,5-tetrahydro-2H-1,5-methanobenzo[c]azepine-2-carboxylate] |  | affinity (Ki) for σ2R/TMEM97, in words (σ2R/TMEM97 [4]; rat σ2R/TMEM97): high affinity; selectivity for σ2R/TMEM97 vs σ1R, in words (σ2R/TMEM97 [4]; rat σ2R/TMEM97 vs guinea pig σ1R): good selectivity; neuroprotection against mHTT-induced neuronal toxicity [3]: significant neuroprotection in a dose dependent fashion; intrinsic toxicity [3]: None of these compounds appear to exhibit any intrinsic toxicity
31 | OC1CCC(N2CCCC3CC2c2cc(-c4ccc(C(F)(F)F)cc4)ccc23)CC1 (stereo not shown) | 7.41 | 
32 | CN(C)CCC(=O)N1CCC2CC1c1cc(-c3cccc(C(F)(F)F)c3)ccc12 (stereo not shown) | 8.06 | 
33 | FC(F)(F)Oc1cccc(-c2ccc3c(c2)C2CC3CCN2C2CCCCC2)c1 (stereo not shown) | 7.10 | 
34 | FC(F)(F)c1ccc(-c2ccc3c(c2)C2CC3CCCN2C2CCCCC2)cc1 (stereo not shown) | 7.60 | 
35 | COCCN1CC(C(=O)N2CCC3C[C@H]2c2cc(-c4ccc(C(F)(F)F)cc4)ccc23)C1 | 7.75 | 
36 | O=C(C1CN(CCO)C1)N1CCC2C[C@H]1c1cc(-c3ccc(C(F)(F)F)cc3)ccc12 | 7.82 | 
37 | CN1CCC(C(=O)N2CCC3CC2c2cc(-c4cccc(C(F)(F)F)c4)ccc23)CC1 (stereo not shown) | 8.64 | 
38 | O=C(C1CCN(CCO)CC1)N1CCC2CC1c1cc(-c3cccc(C(F)(F)F)c3)ccc12 (stereo not shown) | 7.49 | 
39 | Fc1ccc(-c2ccc3c(c2)C2CC3CCCN2C2CCCC2)cc1 (stereo not shown) | 6.82 | 
40 | Cc1ccc(-c2ccc3c(c2)C2CC3CCCN2C2CCCC2)cc1 (stereo not shown) | 6.73 | 

Row | SMILES | pKi (σ2R/TMEM97 [1]) | other results
41 | CN(C)[C@H]1CC[C@@H](N2CCC3C[C@H]2c2cc(-c4cccc(C(F)(F)F)c4)ccc23)CC1 | 8.02 | 
42 | FC(F)(F)c1cccc(-c2ccc3c(c2)C2CC3CCN2)c1 (stereo not shown) | 7.24 | 
43 | O=C(N1CCC2(CC1)CN(CCO)C2)N1CCC2C[C@H]1c1cc(-c3ccc(C(F)(F)F)cc3)ccc12 | 7.04 | 
44 | OCCCN1CCC2CC1c1cc(-c3ccc(C(F)(F)F)cc3)ccc12 (stereo not shown) | 7.96 | 
45 | CC(=O)N[C@H]1CC[C@H](N2CCC3CC2c2cc(-c4cccc(C(F)(F)F)c4)ccc23)CC1 (stereo partly shown) | 8.39 | 
46 | CCCN1CCC(C(=O)N2CCC3CC2c2cc(-c4ccc(C(F)(F)F)cc4)ccc23)CC1 (stereo not shown) | 8.89 | 
47 | N[C@H]1CC[C@H](N2CCC3CC2c2cc(-c4cccc(C(F)(F)F)c4)ccc23)CC1 (stereo partly shown) | 7.15 | 
48 | OCCCN1CC[C@@H]2CC1c1cc(-c3ccnc(F)c3)ccc12 | 6.10 | 
49 | CS(=O)(=O)c1ccc(-c2ccc3c(c2)[C@@H]2CC3CCN2C(=O)C2CCN(CCO)CC2)cc1 | 6.08 | 
50 | O=C(C1CCNCC1)N1CCCC2CC1c1cc(-c3ccc(C(F)(F)F)cc3)ccc12 (stereo not shown) | 7.28 | 
51 | FC(F)(F)c1ccc(-c2ccc3c(c2)C2CC3CCN2C2CCCC2)cc1 (stereo not shown) | 7.08 | 
52 | COCCN1CCC(C(=O)N2CCC3C[C@H]2c2cc(-c4ccc(C(F)(F)F)cc4)ccc23)CC1 | 7.99 | 
53 | O=C(C1CCNCC1)N1CC[C@H]2CC1c1cc(-c3cccc(OC(F)(F)F)c3)ccc12 | 7.43 | 
54 | O=C(C1CNC1)N1CCC2CC1c1cc(-c3cccc(C(F)(F)F)c3)ccc12 (stereo not shown) | 7.80 | 
55 | CS(=O)(=O)c1cccc(-c2ccc3c(c2)C2C[C@H]3CCN2C(=O)C2CCN(CCO)CC2)c1 | 6.56 | 
56 | CCCN1CCC2CC1c1cc(-c3cccc(C(F)(F)F)c3)ccc12 (stereo not shown) | 6.95 | 
57 | OCCCN1CCCC2CC1c1cc(-c3ccc(C(F)(F)F)cc3)ccc12 (stereo not shown) [UKH-1114] |  | neuroprotection against mHTT-induced neuronal toxicity [3]: significant neuroprotection in a dose dependent fashion; intrinsic toxicity [3]: None of these compounds appear to exhibit any intrinsic toxicity; pain relief in the SNI model [5]: relieved pain
58 | OC(CF)CN1CCC2CC1c1cc(-c3ccc(C(F)(F)F)cc3)ccc12 (stereo not shown) | 7.47 | 
59 | O=C(C1CCN(CCO)CC1)N1CCC2C[C@H]1c1cc(-c3ccc(C(F)(F)F)cc3)ccc12 | 7.87 | 
60 | N[C@H]1CC[C@@H](N2CCC3CC2c2cc(-c4cccc(C(F)(F)F)c4)ccc23)CC1 (stereo partly shown) | 8.10 | 
